Measurements reported in ChEMBL document CHEMBL1201862, “PubChem BioAssay data set” (2004).
Active and inactive are the calls of the source.

Key:
[1] = biological target: Glyceraldehyde-3-phosphate dehydrogenase (Homo sapiens, UniProt P04406)
[2] = biological target: Luciferin 4-monooxygenase (Photinus pyralis, UniProt P08659); assay: inhibition of purified Photinus pyralis luciferase – biochemical, luminescence, dose response (AID 1891)
[3] = Luminescence Cell-Based Dose Confirmation HTS to Identify Inhibitors of Platelet Dense Granule Release. [Related pubchem assays: 1663 (Primary HTS), 1678 (Summary of Project)]; format: functional
Genome polyprotein = Genome polyprotein (dengue virus type 2, UniProt P29990); assay: flavivirus cap methylation enzyme inhibition – biochemical, confirmation dose response, primary screen (AID 588689); format: functional
[4] = biological target: T1, Polyadenylate-binding protein 1 (Homo sapiens, UniProt P11940); assay: MLLE domain peptide-binding blockers, IC50 – biochemical, fluorescence polarization, FITC-PAM2 peptide, dose response (AID 602259); format: functional; details: read-out: IC50_Mean
[5] = biological target: T1, Polyadenylate-binding protein 1; assay: MLLE binding blockers, Cy5 peptide tracer – biochemical, fluorescence polarization, Cy5-PAM2 peptide, secondary, miRNA deadenylation inhibitor project, dose response (AID 602260); format: functional; details: read-out: IC50_Mean
[6] = biological target: T2, Replicative DNA helicase DnaB (Mycobacterium tuberculosis, UniProt P9WMR3); assay: DnaB intein splicing inhibitors, dose response, biochemical, cell-free fluorescence (AID 449749); format: functional
T2 sequence (P9WMR3 whole entry): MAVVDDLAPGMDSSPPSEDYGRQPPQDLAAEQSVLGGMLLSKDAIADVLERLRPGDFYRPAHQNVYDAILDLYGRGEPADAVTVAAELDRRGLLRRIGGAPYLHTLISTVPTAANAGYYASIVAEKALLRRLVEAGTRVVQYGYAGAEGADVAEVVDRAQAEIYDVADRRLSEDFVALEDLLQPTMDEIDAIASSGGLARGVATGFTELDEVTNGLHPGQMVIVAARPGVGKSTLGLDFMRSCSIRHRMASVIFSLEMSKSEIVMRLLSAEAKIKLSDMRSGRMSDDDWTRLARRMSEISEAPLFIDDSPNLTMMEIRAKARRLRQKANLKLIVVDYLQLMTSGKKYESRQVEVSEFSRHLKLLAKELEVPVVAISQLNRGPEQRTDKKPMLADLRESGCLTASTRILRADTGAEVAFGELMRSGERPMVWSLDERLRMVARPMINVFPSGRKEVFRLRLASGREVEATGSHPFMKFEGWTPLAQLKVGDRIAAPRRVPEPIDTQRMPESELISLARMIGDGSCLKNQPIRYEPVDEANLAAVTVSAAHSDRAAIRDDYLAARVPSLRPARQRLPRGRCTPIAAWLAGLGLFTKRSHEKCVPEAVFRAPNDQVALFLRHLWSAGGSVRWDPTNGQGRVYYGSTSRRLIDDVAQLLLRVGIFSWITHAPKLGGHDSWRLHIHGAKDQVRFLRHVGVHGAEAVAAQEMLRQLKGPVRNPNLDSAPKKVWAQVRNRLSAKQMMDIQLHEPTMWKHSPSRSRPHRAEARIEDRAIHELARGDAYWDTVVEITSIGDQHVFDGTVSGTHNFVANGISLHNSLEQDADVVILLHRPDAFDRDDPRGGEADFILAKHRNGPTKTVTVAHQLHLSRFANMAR

Protein RecA = biological target: T3, Protein RecA (Mycobacterium tuberculosis, UniProt P9WHJ3); assay: Fluorescence Cell-Free Homogeneous Dose Retest to Identify Inhibitors of RecA-Intein Splicing Activity. [Related pubchem assays (depositor defined):AID2097, AID2223, AID489010, AID492950]; format: functional
T3 sequence (P9WHJ3 whole entry): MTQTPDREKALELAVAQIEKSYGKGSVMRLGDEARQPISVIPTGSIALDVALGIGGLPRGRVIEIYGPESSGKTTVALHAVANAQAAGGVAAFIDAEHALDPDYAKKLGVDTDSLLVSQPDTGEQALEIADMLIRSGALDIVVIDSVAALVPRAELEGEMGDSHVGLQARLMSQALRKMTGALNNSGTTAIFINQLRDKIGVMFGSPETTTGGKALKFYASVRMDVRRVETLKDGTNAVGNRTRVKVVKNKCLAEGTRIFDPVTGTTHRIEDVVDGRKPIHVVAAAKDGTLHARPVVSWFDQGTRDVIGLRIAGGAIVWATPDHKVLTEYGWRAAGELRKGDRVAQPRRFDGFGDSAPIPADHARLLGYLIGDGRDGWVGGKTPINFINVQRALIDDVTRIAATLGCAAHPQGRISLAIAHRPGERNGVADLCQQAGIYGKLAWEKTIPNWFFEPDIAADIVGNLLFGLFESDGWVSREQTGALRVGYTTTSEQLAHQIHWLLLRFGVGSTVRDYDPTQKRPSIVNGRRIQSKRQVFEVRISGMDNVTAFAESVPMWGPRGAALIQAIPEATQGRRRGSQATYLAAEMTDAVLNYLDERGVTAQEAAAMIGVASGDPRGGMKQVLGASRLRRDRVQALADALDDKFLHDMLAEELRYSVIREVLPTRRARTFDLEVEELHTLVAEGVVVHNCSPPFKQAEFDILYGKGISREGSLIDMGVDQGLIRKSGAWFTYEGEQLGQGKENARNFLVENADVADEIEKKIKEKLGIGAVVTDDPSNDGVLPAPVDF

[7] = biological target: Induced myeloid leukemia cell differentiation protein Mcl-1 (Homo sapiens, UniProt Q07820); format: functional
[8] = biological target: T4, Histone-lysine N-methyltransferase NSD2 (Homo sapiens, UniProt O96028); format: biochemical
T4 sequence (O96028 whole entry): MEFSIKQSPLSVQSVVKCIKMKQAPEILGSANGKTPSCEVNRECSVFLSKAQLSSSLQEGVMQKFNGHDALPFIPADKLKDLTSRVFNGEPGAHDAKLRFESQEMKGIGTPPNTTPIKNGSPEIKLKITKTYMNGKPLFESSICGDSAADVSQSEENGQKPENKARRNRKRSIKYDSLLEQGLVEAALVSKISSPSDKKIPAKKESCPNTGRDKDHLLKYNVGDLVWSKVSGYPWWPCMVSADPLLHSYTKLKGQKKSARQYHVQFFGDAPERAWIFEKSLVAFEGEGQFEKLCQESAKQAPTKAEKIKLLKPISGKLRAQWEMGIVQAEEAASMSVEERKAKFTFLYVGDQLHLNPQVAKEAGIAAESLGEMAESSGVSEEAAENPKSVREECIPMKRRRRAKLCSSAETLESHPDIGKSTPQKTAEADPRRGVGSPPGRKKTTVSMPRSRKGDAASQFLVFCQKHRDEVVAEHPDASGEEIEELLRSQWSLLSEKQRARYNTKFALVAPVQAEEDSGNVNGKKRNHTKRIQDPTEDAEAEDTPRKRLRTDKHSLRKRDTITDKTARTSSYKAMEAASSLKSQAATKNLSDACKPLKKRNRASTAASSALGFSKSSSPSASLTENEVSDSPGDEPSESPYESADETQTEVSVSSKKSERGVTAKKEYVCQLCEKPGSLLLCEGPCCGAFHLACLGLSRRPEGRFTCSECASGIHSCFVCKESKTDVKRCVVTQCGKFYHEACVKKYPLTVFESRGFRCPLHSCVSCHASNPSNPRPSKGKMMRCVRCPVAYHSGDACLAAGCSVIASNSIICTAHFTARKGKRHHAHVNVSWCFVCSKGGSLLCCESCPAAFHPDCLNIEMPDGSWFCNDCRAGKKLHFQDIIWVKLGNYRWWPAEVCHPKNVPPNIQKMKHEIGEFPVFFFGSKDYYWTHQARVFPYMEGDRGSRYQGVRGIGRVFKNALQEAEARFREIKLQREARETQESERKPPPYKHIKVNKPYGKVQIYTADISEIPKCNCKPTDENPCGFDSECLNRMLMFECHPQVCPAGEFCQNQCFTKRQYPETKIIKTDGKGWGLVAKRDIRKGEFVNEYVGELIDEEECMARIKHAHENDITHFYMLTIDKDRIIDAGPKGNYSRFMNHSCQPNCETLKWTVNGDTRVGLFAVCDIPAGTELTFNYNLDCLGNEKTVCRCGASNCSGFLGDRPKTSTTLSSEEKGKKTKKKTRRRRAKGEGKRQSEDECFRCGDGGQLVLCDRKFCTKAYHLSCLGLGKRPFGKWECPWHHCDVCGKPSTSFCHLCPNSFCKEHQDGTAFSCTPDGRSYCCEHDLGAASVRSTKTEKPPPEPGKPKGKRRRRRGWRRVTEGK

[9] = reduction of Shn3 3'UTR-driven luciferase in osteoblasts – cell-based, Clone20 osteoblasts, firefly luciferase, cherry-picked, dose response (AID 624132); format: functional;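 further: firefly luciferase luminescence from reporter carrying the Shn3 3'UTR in osteoblasts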
[10] = loss of viability in HepG2 cells – cell-based, CellTiter-Glo, cherry-picked, cytotoxicity control for Shn3 inhibitor project, dose response (AID 624134); format: functional
HEK293 [11] = assay: inhibition of NOD1-driven NF-kB reporter – cell-based, luminescence, uHTS, primary screen (AID 1578); format: functional; details: Homo sapiens
HEK293 [12] = assay: cells; format: functional, cell-based; details: Homo sapiens
[13] = non-specific 3'UTR reporter inhibition in Clone20-Shn3RL – cell-based, Renilla luciferase, cherry-picked, counter-screen for Shn3 inhibitor project, dose response (AID 624133); format: functional
HEK293 [14] = assay: cells; format: functional, cell-based; details: Homo sapiens; remark: listed apart in the source
HEK293 [15] = assay: NOD2 signaling inhibitors in MDP-stimulated cells, cell-based, uHTS, luminescence (AID 2001); format: functional; details: Homo sapiens
[16] = toxicity toward HepG2 liver cells – cell-based, plate reader, cherry-pick, antagonist series, cytotoxicity control, dose response (AID 743416); format: functional
[17] = biological target: T5, Heat shock factor protein 1 (Mus musculus, UniProt P38532); assay: decrease of HSF1-responsive luciferase luminescence – cell-based, NIH3T3, dose retest, confirmation (AID 2382); format: functional;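 further: NIH3T3 fibroblasts with HSF1-driven luciferase reporter stressed by proteasome inhibitor MG132; luminescence from HSF1-driven luciferase expression after 8 hours of MG132 stress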
T5 sequence (P38532 whole entry): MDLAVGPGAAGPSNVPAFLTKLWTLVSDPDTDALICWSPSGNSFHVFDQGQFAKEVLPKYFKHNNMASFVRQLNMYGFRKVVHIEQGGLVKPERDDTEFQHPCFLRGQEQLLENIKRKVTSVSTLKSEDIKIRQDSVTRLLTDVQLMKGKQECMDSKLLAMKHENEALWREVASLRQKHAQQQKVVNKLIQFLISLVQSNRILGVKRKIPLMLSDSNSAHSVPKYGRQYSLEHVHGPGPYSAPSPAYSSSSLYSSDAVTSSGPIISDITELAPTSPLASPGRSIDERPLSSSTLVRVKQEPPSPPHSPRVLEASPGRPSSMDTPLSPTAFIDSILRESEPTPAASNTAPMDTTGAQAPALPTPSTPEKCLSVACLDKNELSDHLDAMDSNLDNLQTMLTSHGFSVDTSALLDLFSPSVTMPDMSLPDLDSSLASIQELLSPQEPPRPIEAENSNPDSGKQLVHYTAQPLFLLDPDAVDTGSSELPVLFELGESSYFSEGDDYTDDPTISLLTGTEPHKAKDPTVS

[18] = Luminescence Cell-Based Dose Retest to Confirm Inhibitors of Cancer Stem Cells. [Related pubchem assays (depositor defined):AID2717, AID2721]; format: functional; details: Homo sapiens
[19] = viability loss in HEK293 cells – cell-based, plate reader, cherry-picked samples, cytotoxicity control, dose response (AID 743446); format: functional
[20] = toxicity to human hepatoma HepG2 cells – cell-based, cherry-picked samples, cytotoxicity control, dose response (AID 1159577); format: functional
[21] = P. falciparum Dd2 growth inhibitors, dose response, SYBR Green, cherry-picked samples (AID 1159567); format: functional, cell-based

Luciferin 4-monooxygenase, sequence (P08659 whole entry): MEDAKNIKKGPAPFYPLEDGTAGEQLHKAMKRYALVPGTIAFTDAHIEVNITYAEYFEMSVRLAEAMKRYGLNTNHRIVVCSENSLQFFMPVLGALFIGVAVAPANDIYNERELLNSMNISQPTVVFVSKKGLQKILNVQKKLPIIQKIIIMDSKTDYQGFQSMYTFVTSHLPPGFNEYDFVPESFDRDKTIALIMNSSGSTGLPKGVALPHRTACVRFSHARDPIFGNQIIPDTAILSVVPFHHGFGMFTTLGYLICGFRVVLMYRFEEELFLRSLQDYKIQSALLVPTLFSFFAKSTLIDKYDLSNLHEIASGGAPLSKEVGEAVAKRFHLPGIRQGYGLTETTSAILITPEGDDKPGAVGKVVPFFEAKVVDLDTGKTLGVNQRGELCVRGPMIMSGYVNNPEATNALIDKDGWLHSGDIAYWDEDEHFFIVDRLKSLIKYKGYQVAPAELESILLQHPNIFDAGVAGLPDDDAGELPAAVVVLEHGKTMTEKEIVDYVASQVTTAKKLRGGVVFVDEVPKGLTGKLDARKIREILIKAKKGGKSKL
T1 sequence (P11940 whole entry, the tested form may be a part): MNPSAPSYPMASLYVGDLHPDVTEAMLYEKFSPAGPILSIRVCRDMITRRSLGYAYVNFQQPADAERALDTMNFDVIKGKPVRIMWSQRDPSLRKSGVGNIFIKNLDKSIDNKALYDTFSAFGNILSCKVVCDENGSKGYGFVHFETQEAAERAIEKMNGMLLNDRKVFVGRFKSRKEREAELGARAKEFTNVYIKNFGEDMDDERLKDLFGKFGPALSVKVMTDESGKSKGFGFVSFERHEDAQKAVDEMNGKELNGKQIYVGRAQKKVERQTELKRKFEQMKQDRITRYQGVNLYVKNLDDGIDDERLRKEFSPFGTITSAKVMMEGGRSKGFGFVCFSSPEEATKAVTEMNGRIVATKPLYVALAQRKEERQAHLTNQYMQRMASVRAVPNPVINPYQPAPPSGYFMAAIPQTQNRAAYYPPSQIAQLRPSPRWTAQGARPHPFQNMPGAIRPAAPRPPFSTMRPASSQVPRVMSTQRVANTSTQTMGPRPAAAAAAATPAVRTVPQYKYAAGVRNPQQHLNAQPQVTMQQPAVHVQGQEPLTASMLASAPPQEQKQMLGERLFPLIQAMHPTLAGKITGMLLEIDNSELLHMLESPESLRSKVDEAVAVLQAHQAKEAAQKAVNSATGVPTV
Genome polyprotein, sequence (P29990 2492-3391 limits assumed): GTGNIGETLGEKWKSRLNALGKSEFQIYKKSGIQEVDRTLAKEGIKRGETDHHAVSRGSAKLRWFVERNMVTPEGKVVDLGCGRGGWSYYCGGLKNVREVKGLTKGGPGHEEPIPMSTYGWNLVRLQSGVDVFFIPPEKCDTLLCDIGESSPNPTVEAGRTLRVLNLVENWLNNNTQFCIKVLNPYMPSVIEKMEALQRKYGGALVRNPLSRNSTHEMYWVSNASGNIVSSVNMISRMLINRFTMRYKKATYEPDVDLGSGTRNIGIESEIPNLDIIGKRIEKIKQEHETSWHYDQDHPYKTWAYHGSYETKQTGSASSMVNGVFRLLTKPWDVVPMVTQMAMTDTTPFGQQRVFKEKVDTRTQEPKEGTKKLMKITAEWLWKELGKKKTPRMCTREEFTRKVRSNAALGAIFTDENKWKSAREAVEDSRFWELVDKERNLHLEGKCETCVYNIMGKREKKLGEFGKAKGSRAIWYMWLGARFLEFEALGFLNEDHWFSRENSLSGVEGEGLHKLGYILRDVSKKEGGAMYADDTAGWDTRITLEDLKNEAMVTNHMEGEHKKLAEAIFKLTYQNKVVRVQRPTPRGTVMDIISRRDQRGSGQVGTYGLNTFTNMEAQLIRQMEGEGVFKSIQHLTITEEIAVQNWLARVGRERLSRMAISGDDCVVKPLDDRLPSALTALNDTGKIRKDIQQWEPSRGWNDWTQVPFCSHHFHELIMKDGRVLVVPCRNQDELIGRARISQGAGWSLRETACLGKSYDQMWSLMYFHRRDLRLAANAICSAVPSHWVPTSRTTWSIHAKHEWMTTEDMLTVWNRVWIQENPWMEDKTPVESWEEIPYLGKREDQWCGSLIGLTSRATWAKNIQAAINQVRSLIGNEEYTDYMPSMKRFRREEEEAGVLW
Glyceraldehyde-3-phosphate dehydrogenase, sequence (P04406 whole entry): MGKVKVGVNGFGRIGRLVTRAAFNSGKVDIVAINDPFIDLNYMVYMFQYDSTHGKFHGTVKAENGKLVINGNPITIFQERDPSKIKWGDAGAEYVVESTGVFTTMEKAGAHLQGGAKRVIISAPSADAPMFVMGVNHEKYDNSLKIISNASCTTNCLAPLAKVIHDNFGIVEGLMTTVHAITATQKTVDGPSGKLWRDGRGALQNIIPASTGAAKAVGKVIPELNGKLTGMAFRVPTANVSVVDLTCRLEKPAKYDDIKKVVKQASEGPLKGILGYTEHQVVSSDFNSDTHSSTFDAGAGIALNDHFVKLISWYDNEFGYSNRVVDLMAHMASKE
Induced myeloid leukemia cell differentiation protein Mcl-1, sequence (Q07820 whole entry): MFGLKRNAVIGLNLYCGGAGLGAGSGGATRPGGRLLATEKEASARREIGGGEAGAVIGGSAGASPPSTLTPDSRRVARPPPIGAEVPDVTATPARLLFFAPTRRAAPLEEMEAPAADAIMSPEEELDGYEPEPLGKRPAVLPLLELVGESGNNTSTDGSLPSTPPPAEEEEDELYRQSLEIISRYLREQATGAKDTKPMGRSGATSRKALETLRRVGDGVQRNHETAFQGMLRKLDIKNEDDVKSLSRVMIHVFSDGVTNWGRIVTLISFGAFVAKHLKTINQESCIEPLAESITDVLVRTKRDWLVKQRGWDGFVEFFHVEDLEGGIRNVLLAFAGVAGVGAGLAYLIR

C[C@@H]1CN(C2=C(Cl)C(=O)N(c3ccc(Cl)nc3)C2=O)CCN1
IC50 [1]: > 50 µM (inconclusive)

CN(C)CCN(Cc1ccccc1)S(=O)(=O)c1ccc(-c2ccc(O)nn2)s1
EC50 [2]: > 112 µM (not active)
EC50 [3]: 6.77 µM (active)

CC(=O)c1cc(O)c2ccccc2c1O
IC50 (Genome polyprotein): 29.7 µM (active)
IC50 [4]: > 66 µM (inactive)
IC50 [5]: > 66 µM (inactive)
AC50 [6]: > 380 µM (inactive)
EC50 (Protein RecA): 2.82 µM (active)
IC50 [7]: 5.99 µM (active)
AC50 [8]: 10.6 µM (active)

Cc1ccc(NC(=O)COc2ccc(C(=O)NCCc3ccccc3)cc2)cc1
EC50 [2]: > 112 µM (not active)
EC50 [3]: > 112 µM (not active)

Cc1cc2c(cc1C)NC(c1ccccn1)C1=C(O)CC(C)(C)CC1=N2 (configuration not stated)
EC50 [2]: > 112 µM (not active)
EC50 [3]: > 112 µM (not active)

CC(NS(C)(=O)=O)C(c1cccs1)N1CCN(Cc2ccccc2)CC1 (configuration not stated)
EC50 [2]: > 112 µM (not active)
EC50 [3]: > 112 µM (not active)

O=C(c1cc(COc2c(F)cccc2F)on1)N1CCC(c2ccncc2)CC1
AC50 [9]: 1.6 µM (active)
AC50 [10]: 6.75 µM (active)
EC50 (HEK293 [11]): 2.64 µM (active)
IC50 (HEK293 [12]): 9.14 µM (active)
AC50 [13]: 2.31 µM (active)
IC50 (HEK293 [14]): > 20 µM (inactive)
IC50 (HEK293 [15]): 17.1 µM (inactive)

O=S(=O)(Nc1ccc(O)c2ccccc12)c1ccc(OC(F)(F)F)cc1
AC50 [16]: > 52 µM (inactive)
EC50 [17]: > 195 µM (not active)
AC50 [18]: 6.55 µM (active)
AC50 [6]: 0.26 µM (active)
EC50 (Protein RecA): 0.0666 µM (active)
AC50 [19]: 24.9 µM (active)

Cc1cc(C=O)c(C)n1-c1ccc(N2CCCCC2)c([N+](=O)[O-])c1
AC50 [8]: > 20 µM (inactive)

CO[C@@H]1CN(C)C(=O)c2cc(NC(=O)c3ccc(Oc4ccccc4)cc3)ccc2OC[C@@H](C)NC[C@@H]1C
AC50 [20]: 20.7 µM (active)

C[C@H](CO)N1C[C@H](C)[C@@H](CN(C)Cc2ccc3c(c2)OCO3)Oc2ccc(NC(=O)Nc3ccc4c(c3)OCO4)cc2CC1=O
AC50 [20]: > 42 µM (inactive)
AC50 [21]: 4.28 µM (active)

COc1ccc(S(=O)(=O)N2CCCCN3[C@@H](CO)[C@@H](c4ccc(C#CCC(C)C)cc4)[C@@H]3C2)cc1
AC50 [20]: 18.9 µM (active)
AC50 [21]: 1.63 µM (active)

C[C@@H]1CN([C@@H](C)CO)C(=O)c2c(c3ccccc3n2C)-c2ccccc2CO[C@@H]1CN(C)Cc1cccc(C(F)(F)F)c1
AC50 [20]: 14 µM (active)
AC50 [21]: 1.64 µM (active)
